From patent publication US10532977B2, “Small molecule inhibitors of protein tyrosine phosphatases and uses thereof” (Indiana University Research and Technology Corporation, priority 2015, dated 2020)

Test system: mPTPB
Assay: IFN-γ induced Erk1/2 phosphorylation in mPTPB transfected Raw264.7 cells
Assay type: cell-based, mouse
Protocol: Raw264.7 mouse macrophages were cultured in Dulbecco's modified Eagle's medium (DMEM) supplemented with 10% FBS (Invitrogen), penicillin (50 units/mL), and streptomycin (50 μg/mL) under a humidified atmosphere containing 5% CO2 at 37° C. Transfected Raw264.7 cells (Vector, WT-mPTPB) were seeded in a 12-well plate at a density of 4×10^4 cells/well. The following day cells were treated with mPTPB inhibitor 11a for 1 hour, then stimulated with IFN-γ (200 U/ml) for 1 hour. Subsequently, the cells were washed with ice-cold phosphate buffered saline, and lysed with lysis buffer on ice for 30 minutes. Cell lysate was then cleared by centrifuging at 13,000 rpm for 15 minutes. The phosphorylation of ERK1/2 was detected by Western blotting.

O=C(C(c1ccccc1)S(=O)(=O)O)N1CCCC2CCCCC21 (centres unmarked) [Compound L319N53]
Erk1/2 phosphorylation in mPTPB transfected Raw264.7 cells (8 nM, 16 nM, and 32 nM): increased Erk1/2 phosphorylation | Erk1/2 phosphorylation in vector cells (Raw264.7 vector cells): no effect
